The source of these data is patent US7632829B2, “Diazepan derivatives” (Hoffmann-La Roche Inc., priority 2006, dated 2009).

Test [1] addresses T1, CCR2 (Homo sapiens, UniProt P41597).
T1 construct: endogenous in cells; host or cells: THP1-4x cells
T1 sequence (P41597 1-360 isoform P41597-2): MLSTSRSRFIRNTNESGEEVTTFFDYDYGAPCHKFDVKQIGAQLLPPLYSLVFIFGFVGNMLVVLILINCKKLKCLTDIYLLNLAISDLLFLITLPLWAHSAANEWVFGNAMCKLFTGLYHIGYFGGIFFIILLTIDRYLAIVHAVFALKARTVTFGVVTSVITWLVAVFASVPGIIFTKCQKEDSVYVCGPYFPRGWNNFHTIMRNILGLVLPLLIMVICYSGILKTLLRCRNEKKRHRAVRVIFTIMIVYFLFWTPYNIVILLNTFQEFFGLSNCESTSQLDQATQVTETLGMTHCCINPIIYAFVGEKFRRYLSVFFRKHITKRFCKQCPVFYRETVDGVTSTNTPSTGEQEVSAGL
Put plainly: Chemotaxis assay (THP1-4x cells, migration towards 10 nM MCP-1). Type of test: cell-based. As to conditions: inhibition of specific migration towards MCP-1. The procedure:
The chemotaxis assay was performed with THP1-4x cells (Mirzadegan et al. 2000, The Journal of Biological Chemistry 275, 33, 25562-25571) similar as described earlier (Kruszynski et al. 2005, Journal of Peptide Science, in press.).
THP1-4x were cultured in RPMI1640, 2 mM L-glutamine, 0.15% Na-bicarbonat, 0.25% D-glucose, 10 mM Hepes, […] Na-pyruvate, […] β-mercaptoethanol, 10% FBS. Isolated cells were labelled in culture medium with 2.5 μg/ml calcein-AM (Molecular Probes) for 60 minutes at 37° C. Excess calcein was removed and cells were washed in D-PBS^++, 2% FBS.
Cells (1×10^5) with or without various concentrations of test compounds were loaded on the top of 8-μm polycarbonate filter in a 96-well-modified Boyden chamber (NeuroProbe). Beneath the filter 10 nM MCP-1 (R&D Systems; Roche) with or without test compounds or D-PBS^++, 2% FBS was placed in the corresponding well. The closed chambers were incubated for 1 hour at 37° C., 5% CO2. Remaining cells in the top compartment were wiped off and migrated cells were measured as fluorescence in the bottom compartment in a FLUOstar (Galaxy BMG) at 485 nm excitation and 530 nm emission. Specific migration is defined as total migration towards MCP-1 minus the background migration towards D-PBS^++, 2% FBS. The ability of test compounds to antagonize CCR2-chemotaxis is reported as concentration required to inhibit 50% of specific migration (IC50) towards MCP-1.

The target of test [2] is T2, human chemokine receptor 2 isoform B (Homo sapiens, UniProt P41597).
T2 construct: host or cells: CHOK1-CCR2B-A5 (CHO-K1)
T2 sequence (P41597 1-360 isoform P41597-2): T1 sequence (P41597 1-360 isoform P41597-2)
Put plainly: Calcium mobilization assay (FLIPR, CHOK1-CCR2B-A5 cells, 20 nM MCP-1). Type of test: cell-based. As to conditions: Ca mobilisation assay, CCR2, antagonist activity vs 20 nM MCP-1. The gist of the method: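 Antagonism read as IC50 against 20 nM MCP-1-evoked calcium rise (peak minus baseline Fluo-4 signal, FLIPR) in CCR2B-overexpressing CHO-K1 cells. Compounds were preincubated 20-30 min at 30 °C, with agonist activity recorded for 80 s on addition.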
Background: Calcium flux is commonly read through the fluorescence of an indicator in the cells.

`O=C(/C=C/c1ccc(Cl)c(Cl)c1)N1CCC(=O)N(CCCN2CCCC(O)C2)CC1` (racemic) [Example 81, (+/−)-1-[(E)-3-(3,4-Dichloro-phenyl)-acryloyl]-4-[3-(3-hydroxy-piperidin-1-yl)-propyl]-[1,4]diazepan-5-one]: the IC50 (in general, the concentration needed to halve the response being measured) was determined as 71 nM in test [1] and 204 nM in test [2].
As to `O=C1NC(=O)C2(CCN(CCCN3CCN(C(=O)/C=C/c4ccc(Cl)c(Cl)c4)CCC3=O)CC2)N1` [Example 48, 8-(3-{4-[(E)-3-(3,4-Dichloro-phenyl)-acryloyl]-7-oxo-[1,4]diazepan-1-yl}-propyl)-1,3,8-triaza-spiro[4.5]decane-2,4-dione], the values for the concentration for half-maximal inhibition (IC50) in test [1] and in test [2] were 13 nM and 64 nM, respectively.
As to `O=C(/C=C/c1ccc(Cl)c(Cl)c1)N1CCC(=O)N(CCN2CCCC2)CC1` [Example 160, 1-[(E)-3-(3,4-Dichloro-phenyl)-acryloyl]-4-(2-pyrrolidin-1-yl-ethyl)-[1,4]diazepan-5-one], the IC50 is 101 nM in test [1] and 232 nM in test [2].
For `O=C(/C=C/c1ccc(Cl)c(Cl)c1)N1CCC(=O)N(CCCN2CCC(O)(c3ccccc3)CC2)CC1` [Example 59, 1-[(E)-3-(3,4-Dichloro-phenyl)-acryloyl]-4-[3-(4-hydroxy-4-phenyl-piperidin-1-yl)-propyl]-[1,4]diazepan-5-one], the half-maximal inhibitory concentration (IC50) in test [1] came to 77 nM; in test [2], 14 nM.
As to `CC1C(O)CCCN1CCCCN1CCN(C(=O)C=Cc2ccc(Cl)c(Cl)c2)CCC1=O` (mixture of isomers) [Example 428, (rac,trans)-1-[(E)3-(3,4-Dichloro-phenyl)-acryloyl]-4-[4-(3-hydroxy-2-methyl-piperidin-1-yl)-butyl]-[1,4]diazepan-5-one], the IC50 in test [2] came to 113 nM.
For `O=C(/C=C/c1ccc(Cl)c(Cl)c1)N1CCC(=O)N(CCCN2CCC(O)(Cc3ccccc3)CC2)CC1` [Example 49, 4-[(E)-3-(4-Benzyl-4-hydroxy-piperidin-1-yl)-propyl]-1-[(E)-3-(3,4-dichloro-phenyl)-acryloyl]-[1,4]diazepan-5-one], the 50% inhibitory concentration (IC50) in test [2] was 510 nM.
Same read-out and setting: to `C[C@@]1(CO)CCN(CCCN2CCN(C(=O)/C=C/c3ccc(F)c(Cl)c3)CCC2=O)C[C@H]1O` (racemic) [Example 220] belongs 169 nM.
